According to publication PMC6037852, “Design of Diarylheptanoid Derivatives as Dual Inhibitors Against Class IIa Histone Deacetylase and β-amyloid Aggregation” (Frontiers in Pharmacology, 2018):

Legend:
HDAC5 = HDAC5 (Homo sapiens, UniProt Q9UQL6); test: HDAC fluorometric activity assay, HDAC5; details: IC50 Class IIa HDAC5, fluorogenic HDAC class IIa substrate 10 μM
Protocol: (§2) Enzyme, inhibitors and substrate were diluted with HDAC buffer (15 mM Tris-HCl pH 8.1, 0.25 mM EDTA, 250 mM NaCl, 10% v:v glycerol). Briefly, 10 μL diluted HDAC, i.e., HeLa nuclear extract (Enzo), HDAC6 (BPS), HDAC4, HDAC5 (BPS), HDAC7 (BPS) and HDAC9 (BPS), as well as 50 μL of testing compounds at different concentrations were added to each well of a 96-well microtiter plate and pre-incubated at 30°C for 5 min. […] The fluorescence in wells without test compounds (0.1% DMSO, negative control) was set as 100% enzymatic activity and the fluorescence in wells with enzyme eliminated was set as 0% enzymatic activity. The fluorescence ratio of test compounds to negative control was defined as percentage of remaining enzyme activity. The IC50 values were calculated by linear regression of the data. All experiments were performed in triplicate.

HDAC6 = molecular target: T1, HDAC6 (Homo sapiens, UniProt Q9UBN7); test: HDAC fluorometric activity assay, HDAC6
T1 sequence (Q9UBN7 1-1215): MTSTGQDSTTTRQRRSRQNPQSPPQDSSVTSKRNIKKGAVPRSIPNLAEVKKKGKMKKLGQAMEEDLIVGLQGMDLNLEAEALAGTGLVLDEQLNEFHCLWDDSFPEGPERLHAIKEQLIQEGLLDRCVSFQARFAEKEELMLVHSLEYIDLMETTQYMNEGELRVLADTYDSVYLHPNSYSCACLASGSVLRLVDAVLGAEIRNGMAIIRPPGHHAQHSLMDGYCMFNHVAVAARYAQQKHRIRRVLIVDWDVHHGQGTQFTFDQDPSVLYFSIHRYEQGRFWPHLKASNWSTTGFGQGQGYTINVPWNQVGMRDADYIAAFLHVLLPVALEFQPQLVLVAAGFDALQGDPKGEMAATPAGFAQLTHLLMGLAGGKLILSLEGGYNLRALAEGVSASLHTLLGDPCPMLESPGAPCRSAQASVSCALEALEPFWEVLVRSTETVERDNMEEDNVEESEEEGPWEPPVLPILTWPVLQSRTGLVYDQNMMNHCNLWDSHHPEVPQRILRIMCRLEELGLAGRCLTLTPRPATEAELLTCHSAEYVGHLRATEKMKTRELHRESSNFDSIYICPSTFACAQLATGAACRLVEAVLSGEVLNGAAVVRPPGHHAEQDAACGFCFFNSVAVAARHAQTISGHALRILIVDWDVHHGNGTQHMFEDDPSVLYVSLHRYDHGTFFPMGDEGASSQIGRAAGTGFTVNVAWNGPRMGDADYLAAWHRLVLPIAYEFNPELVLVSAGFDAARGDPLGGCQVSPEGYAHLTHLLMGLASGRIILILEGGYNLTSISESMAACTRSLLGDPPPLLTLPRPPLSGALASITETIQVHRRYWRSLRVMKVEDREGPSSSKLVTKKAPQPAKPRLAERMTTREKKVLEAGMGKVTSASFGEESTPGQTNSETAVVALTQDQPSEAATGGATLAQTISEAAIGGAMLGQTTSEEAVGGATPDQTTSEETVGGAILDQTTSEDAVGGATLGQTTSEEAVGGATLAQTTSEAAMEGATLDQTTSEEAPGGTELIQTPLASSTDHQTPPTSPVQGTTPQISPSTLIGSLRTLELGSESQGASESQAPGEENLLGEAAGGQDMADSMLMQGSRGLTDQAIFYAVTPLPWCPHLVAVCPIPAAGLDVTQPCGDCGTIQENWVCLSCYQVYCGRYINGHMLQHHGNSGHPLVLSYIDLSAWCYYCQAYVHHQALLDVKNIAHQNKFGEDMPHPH
Protocol: as §2

SH-SY5Y cells [1] = test: Neuroprotection against H2O2-induced neurotoxicity on SH-SY5Y cells, MTT assay; format: cell-based; details: Homo sapiens, compound 40 μM, 500 μM H2O2, 3 h, percentage of control, H2O2 alone 34.6%, read-out: Cell viability after H2O2 exposure
Protocol: (§1) SH-SY5Y cells were kindly provided by Professor Zhi-Hong Wen (National Sun Yat-sen University) and cultured in DMEM/F12 (Gibco, Grand Island, NY, United States) supplemented with 10% heat-inactivated fetal bovine serum and penicillin (100 U/ml)/streptomycin (100 μg/ml) (Invitrogen, Carlsbad, CA, United States) at 37°C in an atmosphere of 5% CO2.
H2O2-induced neurotoxicity on SH-SY5Y cells was used to evaluate the neuroprotective effect ([Rafatian et al., 2012]; [Omar et al., 2017]). Briefly, a density of 2 × 10^4 SH-SY5Y cells were seeded per well in 96-well plates. After 24 h of incubation, the medium was replaced with serum free medium containing H2O2 at a concentration of 500 μM and treated with different concentrations of compounds (40, 20, and 10 μM). SH-SY5Y cells were also cultured without any treatment as control group and results were indicated by percentage of control. After 3 h, cell viability was performed by MTT assay. The cells were treated with MTT (5 mg/ml in PBS) for 4 h at 37°C. The formazan crystals were generated by viable mitochondrial succinate dehydrogenase from MTT. The supernatant was then aspirated off and the formazan crystals were dissolved with DMSO. Absorbance at 570 nm was determined by Tecan Sunrise microplate reader. The trypan blue exclusion test was also used to evaluate the neuroprotection.

SH-SY5Y cells [2] = test: Cytotoxicity effect on SH-SY5Y cells, alamar blue cell viability assay; format: cell-based, human; details: 40 μM, 24 h
Protocol: as §1
Cell viability was assessed using the alamar blue (7-hydroxy-10-oxidophenoxazin-10-ium-3-one) cell viability assay in 6 replicates as described previously ([Feng et al., 2016]). Briefly, 5 × 10^3 cells/well were seeded in 96-well flat-bottomed plates; 24 h later, cells were treated with compounds or DMSO as control. After 24 h of incubation, the medium was removed, 100 μL medium containing 10 μL of alamar blue was added, and cells were incubated in the 5% CO2 incubator at 37°C for 4 h. Absorbance at 570 nm was determined by Synergy HT microplate reader. The results were averaged over three different independent experiments. The cell viability was also evaluated by trypan blue exclusion test.

Chain of HDAC5 (Q9UQL6 whole entry): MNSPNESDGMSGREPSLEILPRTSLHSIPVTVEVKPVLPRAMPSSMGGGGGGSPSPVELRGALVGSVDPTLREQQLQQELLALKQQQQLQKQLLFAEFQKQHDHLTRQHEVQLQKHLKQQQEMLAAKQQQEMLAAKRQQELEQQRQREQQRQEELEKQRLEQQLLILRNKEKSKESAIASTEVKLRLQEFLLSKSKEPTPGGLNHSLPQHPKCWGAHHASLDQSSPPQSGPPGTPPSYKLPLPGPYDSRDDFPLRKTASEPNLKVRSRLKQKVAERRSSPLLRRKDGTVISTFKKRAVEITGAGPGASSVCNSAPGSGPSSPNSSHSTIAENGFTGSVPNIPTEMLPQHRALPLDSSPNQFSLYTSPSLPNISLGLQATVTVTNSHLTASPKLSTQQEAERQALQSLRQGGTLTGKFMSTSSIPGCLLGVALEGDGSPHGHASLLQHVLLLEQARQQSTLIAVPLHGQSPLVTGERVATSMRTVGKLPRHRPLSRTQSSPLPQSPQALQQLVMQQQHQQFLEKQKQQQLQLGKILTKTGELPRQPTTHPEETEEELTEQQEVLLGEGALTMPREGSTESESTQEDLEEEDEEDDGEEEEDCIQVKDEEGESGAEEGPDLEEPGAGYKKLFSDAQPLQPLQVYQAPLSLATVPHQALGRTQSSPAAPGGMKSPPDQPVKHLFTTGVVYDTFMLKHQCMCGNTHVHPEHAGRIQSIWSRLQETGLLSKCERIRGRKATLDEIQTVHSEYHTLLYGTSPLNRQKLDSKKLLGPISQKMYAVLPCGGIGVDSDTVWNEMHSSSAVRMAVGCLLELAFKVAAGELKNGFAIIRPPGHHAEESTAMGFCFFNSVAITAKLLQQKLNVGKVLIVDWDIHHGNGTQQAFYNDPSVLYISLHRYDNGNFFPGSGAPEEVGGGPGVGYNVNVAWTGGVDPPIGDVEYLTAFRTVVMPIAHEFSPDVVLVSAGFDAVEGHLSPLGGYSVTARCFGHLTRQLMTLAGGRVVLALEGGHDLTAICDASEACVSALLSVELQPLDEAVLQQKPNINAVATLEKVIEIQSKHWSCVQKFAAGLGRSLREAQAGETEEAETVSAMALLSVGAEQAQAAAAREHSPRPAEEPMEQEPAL

Row | SMILES | IC50 (HDAC5) [µM] | IC50 (HDAC6) [µM] | viability at 40 µM (SH-SY5Y cells [1]) [%] | Cytotoxicity to SH-SY5Y cells (SH-SY5Y cells [2])
1 | O=C(/C=C/c1ccccc1)CCCCc1ccccc1 [Compound 4a] | > 40 | > 40 | – | –
2 | O=C(/C=C/c1ccc(O)cc1)CCCCc1ccccc1 [Compound 4b] | > 40 | > 40 | – | –
3 | O=C(/C=C/c1ccc(O)c(O)c1)CCCCc1ccccc1 [Compound 4c] | 15.9 ± 1.5 | 18.3 ± 0.9 | – | –
4 | O=C(/C=C/c1cccc(O)c1)CCCCc1ccccc1 [Compound 4d] | > 40 | > 40 | – | –
5 | O=C(/C=C/c1cccc(O)c1O)CCCCc1ccccc1 [Compound 4e] | 14.6 ± 0.2 | 29.4 ± 1.5 | – | –
6 | O=C(/C=C/c1ccc(O)c(F)c1)CCCCc1ccccc1 [Compound 4f] | > 40 | > 40 | – | –
7 | O=C(/C=C/c1ccc(O)c(Cl)c1)CCCCc1ccccc1 [Compound 4g] | > 40 | > 40 | – | –
8 | O=C(/C=C/c1ccc(O)c(Br)c1)CCCCc1ccccc1 [Compound 4h] | > 40 | > 40 | – | –
9 | O=C(/C=C/c1ccc(O)c([N+](=O)[O-])c1)CCCCc1ccccc1 [Compound 4i] | 36.1 ± 3.7 | > 40 | – | –
10 | O=C(/C=C/c1cc(O)c(O)c(O)c1)CCCCc1ccccc1 [Compound 4j] | 7.1 ± 0.2 | 11.9 ± 0.2 | 88.3 | did not show significant cytotoxicity
11 | COc1cc(/C=C/C(=O)CCCCc2ccccc2)ccc1O [Compound 4k] | > 40 | > 40 | – | –
12 | O=C(CCCCc1ccccc1)CCc1ccccc1 [Compound 5a] | > 40 | > 40 | – | –
13 | O=C(CCCCc1ccccc1)CCc1ccc(O)cc1 [Compound 5b] | > 40 | > 40 | – | –
14 | O=C(CCCCc1ccccc1)CCc1ccc(O)c(O)c1 [Compound 5c] | 3.8 ± 0.1 | > 40 | 61.3 | did not show significant cytotoxicity
15 | O=C(CCCCc1ccccc1)CCc1cccc(O)c1 [Compound 5d] | > 40 | > 40 | – | –
16 | O=C(CCCCc1ccccc1)CCc1cccc(O)c1O [Compound 5e] | 4.8 ± 0.4 | > 40 | 58.8 | did not show significant cytotoxicity
17 | O=C(CCCCc1ccccc1)CCc1ccc(O)c(F)c1 [Compound 5f] | > 40 | > 40 | – | –
18 | O=C(CCCCc1ccccc1)CCc1ccc(O)c(Cl)c1 [Compound 5g] | > 40 | > 40 | – | –
19 | O=C(CCCCc1ccccc1)CCc1ccc(O)c(Br)c1 [Compound 5h] | > 40 | > 40 | – | –
20 | COc1cc(CCC(=O)CCCCc2ccccc2)ccc1O [Compound 5i] | > 40 | > 40 | – | –
21 | O=C(/C=C/c1ccc(O)c(O)c1)c1ccccc1 [Compound 7a] | 13.1 ± 4.4 | 26.2 ± 4.3 | – | –
22 | O=C(/C=C/c1ccc(O)c(O)c1)Cc1ccccc1 [Compound 7b] | 13.7 ± 0.8 | 37.2 ± 1.2 | – | –
23 | O=C(/C=C/c1ccc(O)c(O)c1)CCc1ccccc1 [Compound 7c] | 15.6 ± 0.4 | 34.5 ± 2.2 | – | –
24 | O=C(/C=C/c1ccc(O)c(O)c1)CCCc1ccccc1 [Compound 7d] | 12.6 ± 2.3 | 37.5 ± 1.6 | – | –
25 | O=C(CCc1ccc(O)c(O)c1)c1ccccc1 [Compound 8a] | 6.2 ± 0.4 | > 40 | – | –
26 | O=C(CCc1ccc(O)c(O)c1)Cc1ccccc1 [Compound 8b] | 9 ± 0.2 | > 40 | – | –
27 | O=C(CCc1ccccc1)CCc1ccc(O)c(O)c1 [Compound 8c] | 8.2 ± 0.1 | > 40 | – | –
28 | O=C(CCCc1ccccc1)CCc1ccc(O)c(O)c1 [Compound 8d] | 7.5 ± 0.3 | > 40 | – | –
